11 compounds from ChEMBL document CHEMBL1201862, “PubChem BioAssay data set” (2004) can be followed below.

Among the test systems are A498; CCRF-CEM; HT-29; Hs-578T; IGROV-1; MCF7; MDA-MB-231; Malme-3M; NCI/ADR-RES; RXF 393; SF-268; SF-295; SN12C; SNB-75; T47D; TK-10; U-251; UACC-62; LOX IMVI; NCI-H522.
What all share (assay): growth of human tumour cells (NCI), 48 h

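Protocol summary: plate cells (96-well), add compound at 5 concentrations, incubate 48 h, interpolate endpoints linearly. Abbreviation: GI50, concentration required for 50% inhibition of growth.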 The source made the active and inactive calls. Cut-off read from the data, not from the text of the source: active = GI50 up to about 1.1 µM and inactive = higher.

For the compound `CCOP(=O)(OCC)C(F)(F)Cc1cnc(C)c2c1COC(C)(C)O2`, the GI50 in the assay on A498, in the assay with CCRF-CEM, in the assay on HT-29, in the assay with Hs-578T, with IGROV-1 and in the assay on MCF7 was > 10 µM (inactive) each time. For the same compound, the GI50 with MDA-MB-231, in the assay with Malme-3M, in the assay on NCI/ADR-RES, in the assay on RXF 393, in the assay on SF-268 and in the assay with SF-295 was > 10 µM (inactive) throughout. The GI50 in the assay with SN12C, in the assay on SNB-75, with T47D, in the assay with TK-10, in the assay with U-251 and in the assay on UACC-62 was > 10 µM (inactive) throughout.
Take `C=C(C)C12OC1[C@@]1(C)C(=CC2=O)CCC(O)[C@@H]1C` (stereo partly drawn): the GI50 in the assay with A498 is 5.19 µM (inactive); with CCRF-CEM it was 0.726 µM (active); in the assay with HT-29 it was 1.21 µM (inactive); in the assay on Hs-578T, 1.75 µM (inactive); in the assay on IGROV-1, 0.891 µM (active); with LOX IMVI it was 2.67 µM (inactive). Moreover, the GI50 was 3.53 µM (inactive) in the assay with MCF7; 1.52 µM (inactive) in the assay on MDA-MB-231; 3.38 µM (inactive) in the assay on Malme-3M; 0.782 µM (active) in the assay on NCI-H522; 2.14 µM (inactive) with SF-268; 2.58 µM (inactive) in the assay with SF-295. Moreover, the GI50 was 1.36 µM (inactive) in the assay on SN12C; 3.42 µM (inactive) with SNB-75; 3.16 µM (inactive) with T47D; 3.73 µM (inactive) in the assay with TK-10; 1.14 µM (inactive) in the assay with U-251; 3.66 µM (inactive) in the assay with UACC-62.
On to `CCOP(=O)(OCC)C(C#N)Cc1ccco1` (stereo not drawn), for which the GI50 in the assay with A498, with CCRF-CEM, in the assay on HT-29, in the assay on Hs-578T, in the assay on IGROV-1 and in the assay with LOX IMVI was > 10 µM (inactive) throughout. Further, the GI50 with MCF7, with MDA-MB-231, in the assay with Malme-3M, in the assay on NCI/ADR-RES, in the assay with RXF 393 and in the assay with SF-268 was > 10 µM (inactive) in each case. The GI50 was > 10 µM (inactive) with SF-295; > 10 µM (inactive) with SN12C; 5.94 µM (inactive) in the assay on SNB-75; > 10 µM (inactive) in the assay with T47D; > 10 µM (inactive) with TK-10; > 10 µM (inactive) in the assay with U-251. For the same compound, the GI50 with UACC-62 was > 10 µM (inactive).
With `O=C1OC(C(O)CO)C(O)=C1O` (stereo not drawn), the GI50 with CCRF-CEM was > 10 µM (inactive); in the assay with HT-29 it was > 100 µM (inactive); in the assay on Hs-578T it was > 100 µM (inactive); in the assay with IGROV-1 it was > 100 µM (inactive); with LOX IMVI, > 100 µM (inactive); in the assay with MCF7, > 100 µM (inactive). Moreover, the GI50 in the assay on MDA-MB-231, in the assay with Malme-3M, in the assay on NCI-H522, in the assay with NCI/ADR-RES, with SF-268 and in the assay with SF-295 was > 100 µM (inactive) in each case. Further, the GI50 in the assay on SN12C is > 100 µM (inactive); with SNB-75, 99.8 µM (inactive); in the assay with T47D, > 100 µM (inactive); in the assay on TK-10 it was > 100 µM (inactive); with U-251, > 100 µM (inactive).
Take `CC(C)CCCC(C)[C@H]1CC[C@H]2[C@@H]3CC[C@H]4C[C@@H](CCC=C(c5cc(Cl)c(O)c(C(=O)OC(C)C)c5)c5cc(Cl)c(O)c(C(=O)OC(C)C)c5)CC[C@]4(C)[C@H]3CC[C@]12C` (stereo partly drawn): the GI50 with A498, in the assay with CCRF-CEM, with HT-29, in the assay on Hs-578T, in the assay with IGROV-1 and in the assay with LOX IMVI was > 50 µM (inactive) throughout. Also, the GI50 in the assay with MCF7, in the assay on MDA-MB-231, with NCI/ADR-RES, in the assay on RXF 393, in the assay with SF-268 and with SF-295 was > 50 µM (inactive) in each case. Further, the GI50 with SN12C, in the assay on SNB-75, in the assay with T47D, in the assay with U-251 and in the assay with UACC-62 was > 50 µM (inactive) in each case.
`COc1ccc(C2=C(N)c3ccccc3C2=O)cc1`: the GI50 is 81.8 µM (inactive) in the assay on A498; > 100 µM (inactive) in the assay on CCRF-CEM; > 100 µM (inactive) with HT-29; 27.5 µM (inactive) in the assay on Hs-578T; 89.7 µM (inactive) with IGROV-1; > 100 µM (inactive) in the assay with LOX IMVI. Moreover, the GI50 in the assay with MCF7 is > 100 µM (inactive); in the assay on MDA-MB-231, 32.5 µM (inactive); in the assay on Malme-3M it was > 100 µM (inactive); in the assay on NCI-H522 it was 69 µM (inactive); in the assay with NCI/ADR-RES it was 42.4 µM (inactive); in the assay with SF-268 it was 33.7 µM (inactive). Besides, the GI50 in the assay with SF-295 was 37.3 µM (inactive); with SN12C, > 100 µM (inactive); in the assay on SNB-75, 27.7 µM (inactive); in the assay on T47D, > 100 µM (inactive); in the assay with TK-10, 45.1 µM (inactive); with U-251 it was 33.9 µM (inactive). Further, the GI50 in the assay with UACC-62 is > 100 µM (inactive).
Take `CN(C)CCNC(=O)c1cccc2c(NC(CS)C(=O)O)c3ccccc3[n+](C)c12` (stereo not drawn): the GI50 with A498 was 77.4 µM (inactive); in the assay on HT-29 it was 99.3 µM (inactive); in the assay on Hs-578T it was > 100 µM (inactive); in the assay on IGROV-1, 43.8 µM (inactive); in the assay with LOX IMVI, 32.8 µM (inactive); in the assay with MCF7 it was 95.5 µM (inactive). For the same compound, the GI50 was 41.4 µM (inactive) with MDA-MB-231; 30.2 µM (inactive) in the assay with Malme-3M; 33.8 µM (inactive) in the assay on NCI/ADR-RES; 23.6 µM (inactive) in the assay with SF-268; > 100 µM (inactive) with SF-295; 49.4 µM (inactive) with SN12C. Further, the GI50 is 41.6 µM (inactive) in the assay on SNB-75; 64.9 µM (inactive) in the assay with T47D; > 100 µM (inactive) in the assay with TK-10; > 100 µM (inactive) in the assay with U-251; 61.2 µM (inactive) in the assay with UACC-62.
Turning to `O=C(O)c1c[nH]c2c(Sc3ccccc3)nccc2c1=O`, the GI50 was > 100 µM (inactive) in the assay with A498; 47 µM (inactive) in the assay with CCRF-CEM; > 100 µM (inactive) in the assay on HT-29; > 100 µM (inactive) in the assay with Hs-578T; > 100 µM (inactive) with IGROV-1; 44.2 µM (inactive) in the assay with LOX IMVI. Besides, the GI50 is > 100 µM (inactive) with MCF7; > 100 µM (inactive) with MDA-MB-231; 76.7 µM (inactive) in the assay on NCI-H522; > 100 µM (inactive) in the assay on NCI/ADR-RES; > 100 µM (inactive) in the assay with SF-268; > 100 µM (inactive) with SF-295. For the same compound, the GI50 in the assay with SN12C, in the assay with SNB-75, with T47D, with TK-10, in the assay on U-251 and in the assay with UACC-62 was > 100 µM (inactive) in each case.
With `OCCOCCN1CCN(CCCN2c3ccccc3Sc3ccc(C(F)(F)F)cc32)CC1`, the GI50 in the assay with A498 was 10.5 µM (inactive); with CCRF-CEM, 0.337 µM (active); with HT-29, 2.33 µM (inactive); in the assay on Hs-578T, 11.9 µM (inactive); in the assay on IGROV-1, 9.84 µM (inactive); in the assay with LOX IMVI, 3.97 µM (inactive). Besides, the GI50 in the assay on MCF7 is 13.1 µM (inactive); with MDA-MB-231 it was 11.1 µM (inactive); in the assay with NCI-H522, 14.7 µM (inactive); in the assay on RXF 393 it was 3.18 µM (inactive); with SF-268 it was 16.5 µM (inactive); in the assay with SF-295, 12.9 µM (inactive). Besides, the GI50 with SN12C was 13.6 µM (inactive); in the assay with SNB-75, 2.39 µM (inactive); in the assay on T47D it was 0.955 µM (active); with TK-10 it was 11.7 µM (inactive); in the assay with U-251 it was 12.3 µM (inactive); in the assay on UACC-62, 6.65 µM (inactive).
For `c1ccc2c(c1)nc1n2CNC1`, the GI50 in the assay on A498, in the assay with CCRF-CEM, in the assay with HT-29, in the assay on Hs-578T, with IGROV-1 and in the assay with LOX IMVI was > 100 µM (inactive) in each case. The GI50 in the assay on MCF7, with MDA-MB-231, in the assay on NCI/ADR-RES, with RXF 393, with SF-268 and in the assay with SF-295 was > 100 µM (inactive) throughout. Also, the GI50 in the assay with SN12C, in the assay on SNB-75, with T47D, in the assay on TK-10, in the assay on U-251 and with UACC-62 was > 100 µM (inactive) in each case.
In the case of `O=C(N/S(=N/S(=O)(=O)c1ccc(Br)cc1)C(Cl)(Cl)Cl)c1ccccc1` (stereo not drawn), the GI50 in the assay with A498, in the assay on CCRF-CEM, in the assay on HT-29, in the assay with Hs-578T, in the assay with IGROV-1 and in the assay on LOX IMVI was > 100 µM (inactive) throughout. Also, the GI50 in the assay with MCF7, with MDA-MB-231, in the assay with Malme-3M, with NCI/ADR-RES, in the assay on RXF 393 and with SF-268 was > 100 µM (inactive) each time. The GI50 in the assay with SF-295 was > 100 µM (inactive); in the assay on SN12C, > 100 µM (inactive); with SNB-75 it was 23.3 µM (inactive); in the assay on T47D, > 100 µM (inactive); in the assay on TK-10, > 100 µM (inactive); in the assay on U-251 it was > 100 µM (inactive). Moreover, the GI50 in the assay on UACC-62 was > 100 µM (inactive).
